14 molecules from US12404285B2, “KRAS G12D proteolysis targeting chimeras” (PAQ Therapeutics Inc., priority 2022, dated 2025) can be followed below.

In this assay the target is T1, KRAS (G12D)-HiBit in AsPc-1-KRAS (G12D)-HiBit-KI cell (Homo sapiens, UniProt P01116, G12D).
T1 construct: host or cells: AsPc-1-KRAS (G12D)-HiBit-KI cells (knock-in line)
T1 sequence (P01116 1-188 isoform P01116-2 G12D): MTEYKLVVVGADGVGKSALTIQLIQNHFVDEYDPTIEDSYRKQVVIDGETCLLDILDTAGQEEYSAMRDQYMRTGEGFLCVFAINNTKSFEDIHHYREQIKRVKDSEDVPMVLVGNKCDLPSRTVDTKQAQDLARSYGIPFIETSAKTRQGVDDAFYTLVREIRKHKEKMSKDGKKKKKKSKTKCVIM
The assay is described as follows: G12D HiBit assay. The format is cell-based. The conditions noted are these: 24 hours compound treatment, absolute DC50, read-out: Average PHA DC50. The procedure: Day 1. Prepared the culture medium for AsPc-1-KRAS (G12D)-HiBit-KI cell (Pharmaron) using RPMI 1640 medium (Gibco, 11875093) with 10% FBS (Gibco, 10099141C) and 1% Penicillin-Streptomycin Liquid (Solarbio, P1400). Cultivated cells in T-75 flasks in a cell culture incubator (Thermo, Model: 371) at 37° C., 5% CO2. Allowed cells to reach approximately 80% confluence before splitting. Rinsed cultivated cells in T-75 flasks with 5 mL PBS (Solarbio, P1020-500). Aspirated off PBS, added 1.5 mL trypsin (Invitrogen, #25300), and incubated at 37° C. for approximately 5 minutes or until the cells detached. Inactivated trypsin by adding excessive serum containing medium. Harvested the cells from flask into cell culture medium and counted the cell number. Seeded AsPc-1-KRAS (G12D)-HiBit-KI cell into 384-well plate (Corning, 3570) (cell density: 5×10^3 cells/well in 50 μL medium) in RPMI 1640 medium and incubated overnight at 37° C. and 5% CO2.
Day 2. Test compounds were dissolved at 0.3 mM in DMSO (Solarbio, D8371) as stock solution. Transferred 45 μL of stock solution to a 384-well plate (Labcyte, 001-14555). Performed 3-fold, 10-points dilution via transferring 15 μL compound into 30 μL DMSO by using TECAN liquid handler (TECAN, Freedom EVO200). The compound plates were spin at room temperature at 1,000 RPM for 1 minute (Eppendorf, 5810R). Transferred 50 nL of diluted compounds from compound source plate into the cell plate by Echo (Labcyte, 550) to achieve final concentrations of 300 nM, 100 nM, 33.3 nM, 11.1 nM, 3.7 nM, 1.23 nM, 0.41 nM, 0.14 nM, 0.046 nM and 0.015 nM, then mixed the cell plate on a plate shaker (Yoning, WZ-4) for 15 seconds at 900 rpm. After compound treatment for 24 hours, removed the plate from incubators and equilibrated at room temperature for 15 minutes. Prepared the HiBit reagent (Promega, N3040) by mixing 10 mL of Nano-Glo®-HiBiT Lytic Buffer with 200 μL of Nano-Glo®-HiBiT Lytic Substrate and 100 μL of LgBiT Protein. Added 20 μL of HiBit reagent into each well of the cell plate and spun the plates at room temperature at 1,000 RPM for 1 minute. Then shook the plates at 600 RPM at room temperature for 20 minutes using a plate shaker (Yoning, WZ-4), and read the luminescence by EnVision (PerkinElmer, 2105-0020).
The inhibition activity was calculated using the following formula: HiBit-G12D level (%)=100%×[Luminescence(Sample)/Mean of Luminescence (HC)] where HC (high control) is obtained from cells treated with 0.1% DMSO only.
Absolute DC50 was calculated by fitting the curve using GraphPad Prism v8.0.2 (analyis 263): Y=Bottom+(100−Bottom)/(1+10^(Log AbsoluteIC50−X)*HillSlope+log((100−Bottom)/(50−Bottom)−1)))
The data are reported in Table 3, wherein “+++”=DC50 less than 100 nM, “++”=DC50 greater than or equal to 100 nM and less than 300 nM; “+”=DC50 greater than or equal to 300 nM.
(The HiBiT peptide binds its large partner to form an active luciferase.)
Consider `C#Cc1c(F)ccc2cccc(-c3ncc4c(N5CC6CCC(C5)N6)nc(OC[C@@]56CCCN5[C@H](COC(=O)N5CC(OC7CCN(Cc8ccc9c(c8)n(C)c(=O)n9C8CCC(=O)NC8=O)CC7)C5)CC6)nc4c3F)c12` (stereo partly drawn) [Compound 89, [(3S,8S)-8-[[4-(3,8-Diazabicyclo[3.2.1]octan-3-yl)-7-(8-ethynyl-7-fluoro-1-naphthyl)-8-fluoro-pyrido[4,3-d]pyrimidin-2-yl]oxymethyl]-1,2,3,5,6,7-hexahydropyrrolizin-3-yl]methyl 3-[[1-[[1-(2,6-dioxo-3-piperidyl)-3-methyl-2-oxo-benzimidazol-5-yl]methyl]-4-piperidyl]oxy]azetidine-1-carboxylate], for which the DC50 was under 100 nM. The value for `C#Cc1c(F)ccc2cccc(-c3ncc4c(N5CC6CCC(C5)N6)nc(OC[C@]56CCCN5[C@@H](COC(=O)N5CCC(CN7CCC(c8ccc9c(c8)n(C)c(=O)n9C8CCC(=O)NC8=O)CC7)CC5)CC6)nc4c3F)c12` (some centres unmarked) [Compound 76] was under 100 nM. For `C#Cc1c(F)ccc2cccc(-c3ncc4c(N5CC6CCC(C5)N6)nc(OC[C@@]56CCCN5[C@H](COC(=O)N5CCC(CCN7CCN(Cc8ccc9c(c8)n(C)c(=O)n9C8CCC(=O)NC8=O)CC7)CC5)CC6)nc4c3F)c12` (stereo partly drawn) [Compound 87, [(3S,8S)-8-[[4-(3,8-Diazabicyclo[3.2.1]octan-3-yl)-7-(8-ethynyl-7-fluoro-1-naphthyl)-8-fluoro-pyrido[4,3-d]pyrimidin-2-yl]oxymethyl]-1,2,3,5,6,7-hexahydropyrrolizin-3-yl]methyl 4-[2-[4-[[1-(2,6-dioxo-3-piperidyl)-3-methyl-2-oxo-benzimidazol-5-yl]methyl]piperazin-1-yl]ethyl]piperidine-1-carboxylate] the value was under 100 nM; for `C#Cc1c(F)ccc2cccc(-c3ncc4c(N5CC6CCC(C5)N6)nc(OC[C@@]56CCCN5[C@H](COC(=O)N5CCC7(CC5)CN(CC#Cc5cccc8c5n(C)c(=O)n8C5CCC(=O)NC5=O)CCO7)CC6)nc4c3F)c12` (some centres unmarked) [Compound 46], at least 300 nM.

For the molecule `C#Cc1c(F)ccc2cccc(-c3ncc4c(N5CC6CCC(C5)N6)nc(OC[C@@]56CCCN5[C@H](COC(=O)NC[C@@H]5CN(CC#Cc7cccc8c7n(C)c(=O)n8C7CCC(=O)NC7=O)CCO5)CC6)nc4c3F)c12` (stereo partly drawn) [Compound 125, [(3S,8S)-8-[[4-(3,8-Diazabicyclo[3.2.1]octan-3-yl)-7-(8-ethynyl-7-fluoro-1-naphthyl)-8-fluoro-pyrido[4,3-d]pyrimidin-2-yl]oxymethyl]-1,2,3,5,6,7-hexahydropyrrolizin-3-yl]methylN-[[(2R)-4-[3-[1-(2,6-dioxo-3-piperidyl)-3-methyl-2-oxo-benzimidazol-4-yl]prop-2-ynyl]morpholin-2-yl]methyl]carbamate], the DC50 was at least 300 nM. Consider `C#Cc1c(F)ccc2cccc(-c3ncc4c(N5CC6CCC(C5)N6)nc(OC[C@@]56CCCN5[C@H](COC(=O)NCCOCCN5CCN(c7cccc8c7n(C)c(=O)n8C7CCC(=O)NC7=O)CC5)CC6)nc4c3F)c12` (stereo partly drawn) [Compound 123, [(3S,8S)-8-[[4-(3,8-diazabicyclo[3.2.1]octan-3-yl)-7-(8-ethynyl-7-fluoro-1-naphthyl)-8-fluoro-pyrido[4,3-d]pyrimidin-2-yl]oxymethyl]-1,2,3,5,6,7-hexahydropyrrolizin-3-yl]methyl N-[2-[2-[4-[1-(2,6-dioxo-3-piperidyl)-3-methyl-2-oxo-benzimidazol-4-yl]piperazin-1-yl]ethoxy]ethyl]carbamate], for which the DC50 was at least 300 nM. The value for `C#Cc1c(F)ccc2cccc(-c3ncc4c(N5CC6CCC(C5)N6)nc(OC[C@@]56CCCN5[C@H](COC(=O)N5CCC(CN7CCC(c8ccc9c(c8)n(C)c(=O)n9C8CCC(=O)NC8=O)CC7)CC5)CC6)nc4c3F)c12` (some centres unmarked) [Compound 44] was under 100 nM; that for `C#Cc1c(F)ccc2cccc(-c3ncc4c(N5CC6CCC(C5)N6)nc(OC[C@@]56CCCN5[C@H](COC(=O)NC[C@@H]5CN(CCCc7cccc8c7n(C)c(=O)n8C7CCC(=O)NC7=O)CCO5)CC6)nc4c3F)c12` (stereo partly drawn) [Compound 126, [(3S,8S)-8-[[4-(3,8-Diazabicyclo[3.2.1]octan-3-yl)-7-(8-ethynyl-7-fluoro-1-naphthyl)-8-fluoro-pyrido[4,3-d]pyrimidin-2-yl]oxymethyl]-1,2,3,5,6,7-hexahydropyrrolizin-3-yl]methyl N-[[(2 R)-4-[3-[1-(2,6-dioxo-3-piperidyl)-3-methyl-2-oxo-benzimidazol-4-yl]propyl]morpholin-2-yl]methyl]carbamate] was at least 300 nM; that for `C#Cc1c(F)ccc2cccc(-c3ncc4c(N5CC6CCC(C5)N6)nc(OC[C@@]56CCCN5[C@H](COC(=O)N5CCC(OCC#CC#Cc7ccc8c(c7)n(C)c(=O)n8C7CCC(=O)NC7=O)CC5)CC6)nc4c3F)c12` (stereo partly drawn) [Compound 92, [(3S,8S)-8-[[4-(3,8-Diazabicyclo[3.2.1]octan-3-yl)-7-(8-ethynyl-7-fluoro-1-naphthyl)-8-fluoro-pyrido[4,3-d]pyrimidin-2-yl]oxymethyl]-1,2,3,5,6,7-hexahydropyrrolizin-3-yl]methyl 4-[5-[1-(2,6-dioxo-3-piperidyl)-3-methyl-2-oxo-benzimidazol-5-yl]penta-2,4-diynoxy]piperidine-1-carboxylate] was under 100 nM. The value for `C#Cc1c(F)ccc2cccc(-c3ncc4c(N5CC6CCC(C5)N6)nc(OC[C@@]56CCCN5[C@H](COC(=O)N5CCC(OCC7CCN(Cc8cccc9c8n(C)c(=O)n9C8CCC(=O)NC8=O)CC7)CC5)CC6)nc4c3F)c12` (stereo partly drawn) [Compound 62, [(3S,8S)-8-[[4-(3,8-Diazabicyclo[3.2.1]octan-3-yl)-7-(8-ethynyl-7-fluoro-1-naphthyl) 8-fluoro-pyrido[4,3-d]pyrimidin-2-yl]oxymethyl]-1,2,3,5,6,7-hexahydropyrrolizin-3-yl]methyl4-[[1-[[1-(2,6-dioxo-3-piperidyl)-3-methyl-2-oxo-benzimidazol-4-yl]methyl]-4-piperidyl]methoxy]piperidine-1-carboxylate] was under 100 nM; that for `C#Cc1c(F)ccc2cccc(-c3ncc4c(N5CCCC6(CCO6)C5)nc(OC[C@@]56CCCN5[C@H](COC(=O)N5CCC(OCCCc7cccc8c7n(C)c(=O)n8C7CCC(=O)NC7=O)CC5)CC6)nc4c3F)c12` (some centres unmarked) [Compound 36] was at least 300 nM. For `C#Cc1c(F)ccc2cccc(-c3ncc4c(N5CC6CCC(C5)N6)nc(OC[C@@]56CCCN5[C@H](COC(=O)N5CCC(Cn7cc(-c8ccc9c(c8)n(C)c(=O)n9C8CCC(=O)NC8=O)nn7)CC5)CC6)nc4c3F)c12` (stereo partly drawn) [Compound 94, [(3S,8S)-8-[[4-(3,8-Diazabicyclo[3.2.1]octan-3-yl)-7-(8-ethynyl-7-fluoro-1-naphthyl)-8-fluoro-pyrido[4,3-d]pyrimidin-2-yl]oxymethyl]-1,2,3,5,6,7-hexahydropyrrolizin-3-yl]methyl 4-[[4-[1-(2,6-dioxo-3-piperidyl)-3-methyl-2-oxo-benzimidazol-5-yl]triazol-1-yl]methyl]piperidine-1-carboxylate] the value was at least 300 nM; for `C#Cc1c(F)ccc2cccc(-c3ncc4c(N5CC6CCC(C5)N6)nc(OC[C@@]56CCCN5[C@H](COC(=O)N5CCC(COC7CN(Cc8ccc9c(c8)n(C)c(=O)n9C8CCC(=O)NC8=O)C7)CC5)CC6)nc4c3F)c12` (some centres unmarked) [Compound 73], under 100 nM. For the molecule `C#Cc1c(F)ccc2cccc(-c3ncc4c(N5CC6CCC(C5)N6)nc(OC[C@@]56CCCN5[C@H](COC(=O)NCCCC(=O)N5CCN(c7cccc8c7n(C)c(=O)n8C7CCC(=O)NC7=O)CC5)CC6)nc4c3F)c12` (stereo partly drawn) [Compound 110, ((3S,7aS)-7a-(((4-((1R,5S)-3,8-Diazabicyclo[3.2.1]octan-3-yl)-7-(8-ethynyl-7-fluoronaphthalen-1-yl)-8-fluoropyrido[4,3-d]pyrimidin-2-yl)oxy)methyl)hexahydro-1H-pyrrolizin-3-yl)methyl(4-(4-(1-(2,6-dioxopiperidin-3-yl)-3-methyl-2-oxo-2,3-dihydro-1H-benzo[d]imidazol-4-yl)piperazin-1-yl)-4-oxobutyl)carbamate], the DC50 was at least 300 nM.
